# Data: patent US8952024B2, “Herbicidal pyrimidone derivatives” (E I du Pont de Nemours and Company, priority 2009, dated 2015)
# How the values were obtained:
# Assay in all cases: Test B pre-/postemergence plant response
# Format in all cases: in vivo
# [1] = system: Italian ryegrass (Lolium multiflorum)
# Text: (§1) Seeds of plant species selected from blackgrass (Alopecurus myosuroides), downy bromegrass (Bromus tectorum), green foxtail (Setaria viridis), Italian ryegrass (Lolium multiflorum), wheat (Triticum aestivum), wild oat (Avena fatua), deadnettle (henbit deadnettle, Lamium amplexicaule), galium (catchweed bedstraw, Galium aparine), bermudagrass (Cynodon dactylon), Surinam grass (Brachiaria decumbens), cocklebur (Xanthium strumarium), corn (Zea mays), large crabgrass (Digitaria sanguinalis), woolly cupgrass (Eriochloa villosa), giant foxtail (Setaria faberii), goosegrass (Eleusine indica), johnsongrass (Sorghum halepense), kochia (Kochia scoparia), lambsquarters (Chenopodium album), morningglory (Ipomoea coccinea), nightshade (eastern black nightshade, Solanum ptycanthum), yellow nutsedge (Cyperus esculentus), pigweed (Amaranthus retroflexus), ragweed (common ragweed, Ambrosia elatior), Russian thistle (Salsola kali), soybean (Glycine max), sunflower (common oilseed sunflower, Helianthus annuus) and velvetleaf (Abutilon theophrasti) were planted into a blend of loam soil and sand and treated preemergence with test compounds formulated in a non-phytotoxic solvent mixture which included a surfactant.
# (§2) At the same time, plants selected from these crop and weed species and also winter barley (Hordeum vulgare), canarygrass (Phalaris minor), chickweed (Stellaria media) and windgrass (Apera spica-venti) were planted in pots containing Redi-Earth® planting medium (Scotts Company, 14111 Scottslawn Road, Marysville, Ohio 43041) comprising spaghnum peat moss, vermiculite, wetting agent and starter nutrients and treated with postemergence applications of some of the test chemicals formulated in the same manner. Plants ranged in height from 2 to 18 cm (1- to 4-leaf stage) for postemergence treatments.
# (§3) Treated plants and controls were maintained in a greenhouse for 13 to 15 days, after which time all treated plants were visually evaluated and compared to controls. Plant response ratings, summarized in Table B, are based on a scale of 0 to 100 where 0 is no effect and 100 is complete control. A dash (-) response means no test result.
# [2] = system: Surinam grass (Brachiaria decumbens)
# Text: as §1, §2, §3
# [3] = system: bermudagrass (Cynodon dactylon)
# Text: as §1, §2, §3
# [4] = system: blackgrass (Alopecurus myosuroides)
# Text: as §1, §2, §3
# [5] = system: cocklebur (Xanthium strumarium)
# Text: as §1, §2, §3
# [6] = system: corn (Zea mays)
# Text: as §1, §2, §3
# [7] = system: downy bromegrass (Bromus tectorum)
# Text: as §1, §2, §3
# [8] = system: green foxtail (Setaria viridis)
# Text: as §1, §2, §3
# [9] = system: kochia (Kochia scoparia)
# Text: as §1, §2, §3
# [10] = system: lambsquarters (Chenopodium album)
# Text: as §1, §2, §3
# [11] = system: large crabgrass (Digitaria sanguinalis)
# Text: as §1, §2, §3
# [12] = system: pigweed (Amaranthus retroflexus)
# Text: as §1, §2, §3
# [13] = system: ragweed (common ragweed, Ambrosia elatior)
# Text: as §1, §2, §3
# [14] = system: soybean (Glycine max)
# Text: as §1, §2, §3
# [15] = system: velvetleaf (Abutilon theophrasti)
# Text: as §1, §2, §3
# [16] = system: wild oat (Avena fatua)
# Text: as §1, §2, §3
# [17] = system: yellow nutsedge (Cyperus esculentus)
# Text: as §1, §2, §3
# [18] = 250 g ai/ha, Preemergence, 0 to 100 scale
# [19] = Postemergence, 31 g ai/ha, scale 0 to 100 (0 no effect, 100 complete control)
# [20] = Postemergence, 62 g ai/ha, scale 0 (no effect) to 100 (complete control), 13 to 15 days
# [21] = Postemergence, 125 g ai/ha, visual rating after 13 to 15 days, scale 0 (no effect) to 100 (complete control)
# [22] = Postemergence, 250 g ai/ha, scale 0 to 100
# [23] = Preemergence, 31 g ai/ha, scale 0 to 100 (0 no effect, 100 complete control)
# [24] = Preemergence, 62 g ai/ha, scale 0 to 100, 0 no effect, 100 complete control
# [25] = Preemergence, 125 g ai/ha, 0 to 100 scale
substance,measurement,setting,value
5-[(1-ethyl-5-hydroxy-1H-pyrazol-4-yl)carbonyl]-2-phenyl-3-(phenylmethyl)-4(3H)-pyrimidinone [Compound 20],"Plant response rating, Ryegrass, Italian",[1]; [18],0
same,"Plant response rating, Ryegrass, Italian",[1]; [19],0
same,"Plant response rating, Ryegrass, Italian",[1]; [20],0
same,"Plant response rating, Ryegrass, Italian",[1]; [21],5
same,"Ryegrass, Italian plant response rating",[1]; [22],5
same,"Plant response rating, Ryegrass, Italian",[1]; [23],0
same,"Plant response rating, Ryegrass, Italian",[1]; [24],0
same,"Ryegrass, Italian plant response rating",[1]; [25],0
same,"Plant response rating, Surinam Grass",[2]; [18],5
same,"Plant response rating, Surinam Grass",[2]; [19],15
same,"Plant response rating, Surinam Grass",[2]; [20],25
same,"Plant response rating, Surinam Grass",[2]; [21],40
same,Surinam Grass plant response rating,[2]; [22],65
same,"Plant response rating, Surinam Grass",[2]; [23],0
same,"Plant response rating, Surinam Grass",[2]; [24],0
same,Surinam Grass plant response rating,[2]; [25],0
same,"Plant response rating, Bermudagrass",[3]; [18],90
same,"Plant response rating, Bermudagrass",[3]; [19],15
same,"Plant response rating, Bermudagrass",[3]; [20],25
same,"Plant response rating, Bermudagrass","[3]; Postemergence, 125 g ai/ha, scale 0 to 100 (0 no effect, 100 complete control), 13 to 15 days",70
same,Bermudagrass plant response rating,[3]; [22],80
same,"Plant response rating, Bermudagrass",[3]; [23],10
same,"Plant response rating, Bermudagrass",[3]; [24],70
same,Bermudagrass plant response rating,[3]; [25],80
same,"Plant response rating, Blackgrass",[4]; [18],0
same,"Plant response rating, Blackgrass",[4]; [19],0
same,"Plant response rating, Blackgrass",[4]; [20],0
same,"Plant response rating, Blackgrass",[4]; [21],0
same,Blackgrass plant response rating,[4]; [22],5
same,"Plant response rating, Blackgrass",[4]; [23],0
same,"Plant response rating, Blackgrass",[4]; [24],0
same,Blackgrass plant response rating,[4]; [25],0
same,"Plant response rating, Cocklebur",[5]; [18],100
same,"Plant response rating, Cocklebur",[5]; [19],65
same,"Plant response rating, Cocklebur",[5]; [20],80
same,"Plant response rating, Cocklebur",[5]; [21],85
same,Cocklebur plant response rating,[5]; [22],100
same,"Plant response rating, Cocklebur",[5]; [23],10
same,"Plant response rating, Cocklebur",[5]; [24],10
same,Cocklebur plant response rating,[5]; [25],70
same,"Plant response rating, Corn",[6]; [18],5
same,"Plant response rating, Corn",[6]; [19],0
same,"Plant response rating, Corn",[6]; [20],0
same,"Plant response rating, Corn",[6]; [21],10
same,Corn plant response rating,[6]; [22],15
same,"Plant response rating, Corn",[6]; [23],0
same,"Plant response rating, Corn",[6]; [24],0
same,Corn plant response rating,[6]; [25],0
same,"Plant response rating, Bromegrass, Downy",[7]; [18],0
same,"Plant response rating, Bromegrass, Downy",[7]; [19],0
same,"Plant response rating, Bromegrass, Downy",[7]; [20],0
same,"Plant response rating, Bromegrass, Downy",[7]; [21],0
same,"Bromegrass, Downy plant response rating",[7]; [22],45
same,"Plant response rating, Bromegrass, Downy",[7]; [23],0
same,"Plant response rating, Bromegrass, Downy",[7]; [24],0
same,"Bromegrass, Downy plant response rating",[7]; [25],0
same,"Plant response rating, Foxtail, Green",[8]; [18],0
same,"Plant response rating, Foxtail, Green",[8]; [19],5
same,"Plant response rating, Foxtail, Green",[8]; [20],10
same,"Plant response rating, Foxtail, Green",[8]; [21],35
same,"Foxtail, Green plant response rating",[8]; [22],50
same,"Plant response rating, Foxtail, Green",[8]; [23],0
same,"Plant response rating, Foxtail, Green",[8]; [24],0
same,"Foxtail, Green plant response rating",[8]; [25],0
same,"Plant response rating, Kochia",[9]; [18],100
same,"Plant response rating, Kochia",[9]; [19],65
same,"Plant response rating, Kochia",[9]; [20],80
same,"Plant response rating, Kochia",[9]; [21],85
same,Kochia plant response rating,[9]; [22],95
same,"Plant response rating, Kochia",[9]; [23],98
same,Kochia plant response rating,[9]; [25],100
same,"Plant response rating, Lambsquarters",[10]; [18],100
same,"Plant response rating, Lambsquarters",[10]; [19],85
same,"Plant response rating, Lambsquarters",[10]; [20],95
same,"Plant response rating, Lambsquarters",[10]; [21],98
same,Lambsquarters plant response rating,[10]; [22],100
same,"Plant response rating, Lambsquarters",[10]; [23],100
same,Lambsquarters plant response rating,[10]; [25],100
same,"Plant response rating, Crabgrass, Large",[11]; [18],100
same,"Plant response rating, Crabgrass, Large",[11]; [19],60
same,"Plant response rating, Crabgrass, Large",[11]; [20],70
same,"Plant response rating, Crabgrass, Large",[11]; [21],80
same,"Crabgrass, Large plant response rating",[11]; [22],90
same,"Plant response rating, Crabgrass, Large",[11]; [23],0
same,"Plant response rating, Crabgrass, Large",[11]; [24],70
same,"Crabgrass, Large plant response rating",[11]; [25],85
same,"Plant response rating, Pigweed",[12]; [18],95
same,"Plant response rating, Pigweed",[12]; [19],75
same,"Plant response rating, Pigweed",[12]; [20],90
same,"Plant response rating, Pigweed",[12]; [21],100
same,Pigweed plant response rating,[12]; [22],100
same,"Plant response rating, Pigweed",[12]; [23],85
same,Pigweed plant response rating,[12]; [25],90
same,"Plant response rating, Ragweed",[13]; [18],90
same,"Plant response rating, Ragweed",[13]; [19],80
same,"Plant response rating, Ragweed",[13]; [20],85
same,"Plant response rating, Ragweed",[13]; [21],98
same,Ragweed plant response rating,[13]; [22],100
same,"Plant response rating, Ragweed",[13]; [23],65
same,"Plant response rating, Ragweed",[13]; [24],65
same,Ragweed plant response rating,[13]; [25],90
same,"Plant response rating, Soybean",[14]; [18],50
same,"Plant response rating, Soybean",[14]; [19],65
same,"Plant response rating, Soybean",[14]; [20],70
same,"Plant response rating, Soybean",[14]; [21],80
same,Soybean plant response rating,[14]; [22],90
same,"Plant response rating, Soybean",[14]; [23],0
same,"Plant response rating, Soybean",[14]; [24],30
same,Soybean plant response rating,[14]; [25],35
same,"Plant response rating, Velvetleaf",[15]; [18],100
same,"Plant response rating, Velvetleaf",[15]; [19],95
same,"Plant response rating, Velvetleaf",[15]; [20],100
same,"Plant response rating, Velvetleaf",[15]; [21],100
same,Velvetleaf plant response rating,[15]; [22],100
same,"Plant response rating, Velvetleaf",[15]; [23],50
same,"Plant response rating, Velvetleaf",[15]; [24],90
same,Velvetleaf plant response rating,[15]; [25],90
same,"Plant response rating, Oat, Wild",[16]; [18],0
same,"Plant response rating, Oat, Wild",[16]; [19],0
same,"Plant response rating, Oat, Wild",[16]; [20],0
same,"Plant response rating, Oat, Wild",[16]; [21],5
same,"Oat, Wild plant response rating",[16]; [22],50
same,"Plant response rating, Oat, Wild",[16]; [23],0
same,"Plant response rating, Oat, Wild",[16]; [24],0
same,"Oat, Wild plant response rating",[16]; [25],0
same,"Plant response rating, Nutsedge, Yellow",[17]; [18],50
same,"Plant response rating, Nutsedge, Yellow",[17]; [19],15
same,"Plant response rating, Nutsedge, Yellow",[17]; [20],45
same,"Plant response rating, Nutsedge, Yellow",[17]; [21],65
same,"Nutsedge, Yellow plant response rating",[17]; [22],80
same,"Plant response rating, Nutsedge, Yellow",[17]; [23],5
same,"Plant response rating, Nutsedge, Yellow",[17]; [24],10
same,"Nutsedge, Yellow plant response rating",[17]; [25],40
